Test results reported in patent publication US8841233B2, “Herbicidal compositions comprising 4-amino-3-chloro-5-fluoro-6-(4-chloro-2-fluoro-3-methoxyphenyl) pyridine-2-carboxylic acid or a derivative thereof and 4-hydroxyphenyl-pyruvate dioxygenase (HPPD) inhibitors” (Dow Agrosciences LLC, priority 2012, dated 2014).
“And” between values parts separate entries of the source, which are not always exact repeats. Identical values can stand only once.

Tests used:
Experiment in all cases: In-water applied weed control, transplanted paddy rice, greenhouse (Example II)
CYPRO = type: in vivo, Cyperus rotundus L.
Description: (§1) Evaluation of in-Water Applied Herbicidal Mixtures for Weed Control in Transplanted Paddy Rice
(§2) Weed seeds or nutlets of the desired test plant species were planted in puddled soil (mud) prepared by mixing a shredded, non-sterilized mineral soil (50.5 percent silt, 25.5 percent clay, and 24 percent sand, with a pH of about 7.6 and an organic matter content of about 2.9 percent) and water at a 1:1 volumetric ratio. The prepared mud was dispensed in 365 mL aliquots into 16-ounce (oz.) non-perforated plastic pots with a surface area of 86.59 square centimeters (cm^2) leaving a headspace of 3 centimeters (cm) in each pot. Mud was allowed to dry overnight prior to planting or transplanting. Rice seeds were planted in Sun Gro MetroMix® 306 planting mixture, which typically has a pH of 6.0 to 6.8 and an organic matter content of about 30 percent, in plastic plug trays. Seedlings at the second or third leaf stage of growth were transplanted into 840 mL of mud contained in 32-oz. non-perforated plastic pots with a surface area of 86.59 cm^2 4 days prior to herbicide application. The paddy was created by filling the headspace of the pots with 2.5 to 3 cm of water. When required to ensure good germination and healthy plants, a fungicide treatment and/or other chemical or physical treatment was applied. The plants were grown for 4-22 days in a greenhouse with an approximate 14 h photoperiod which was maintained at about 29′C during the day and 26° C. during the night. Nutrients were added as Osmocote® (19:6:12, N:P:K+ minor nutrients) at 2 g per 16-oz. pot and 4 g per 32-oz. pot. Water was added on a regular basis to maintain the paddy flood, and supplemental lighting was provided with overhead metal halide 1000-Watt lamps as necessary. The plants were employed for testing when they reached the first through fourth true leaf stage.
(§3) Treatments consisted of the acid or esters of 4-amino-3-chloro-5-fluoro-6-(4-chloro-2-fluoro-3-methoxy-phenyl)pyridine-2-carboxylic acid (compound A) each formulated as an SC (suspension concentrate) and various herbicidal components alone and in combination. Forms of compound A were applied on an acid equivalent basis.
(§4) Other herbicidal components were applied on an active ingredient basis and included 4-hydroxyphenyl pyruvate dioxygenase (HPPD)-inhibiting herbicides mesotrione formulated as Callisto®, sulcotrione formulated as Mikado®, pyrazolynate formulated as Sunbird® 10% GR, and benzobicyclon formulated as Benzobicyclon 3.5% or technical material.
(§5) Treatment requirements for each compound or herbicidal component were calculated based upon the rates being tested, the concentration of active ingredient or acid equivalent in the formulation, an application volume of 2 mL per component per pot, and an application area of 86.59 cm^2 per pot.
(§6) For formulated compounds, a measured amount was placed in an individual 100 or 200 mL glass vial and was dissolved in a volume of 1.25% (v/v) Agri-Dex® crop oil concentrate to obtain application solutions.
(§7) For technical grade compounds, a weighed amount was placed in an individual 100 to 200 mL glass vial and was dissolved in a volume of acetone to obtain concentrated stock solutions. […] The concentrated stock solutions obtained were diluted with an equivalent volume of an aqueous mixture containing 2.5% (v/v) crop oil concentrate so that the final application solutions contained 1.25% (v/v) crop oil concentrate.
(§8) Applications were made by injecting with a pipetter appropriate amounts of the application solutions, individually and sequentially, into the aqueous layer of the paddy. Control plants were treated in the same manner with the solvent blank. Applications were made so that all treated plant material received the same concentrations of acetone and crop oil concentrate.
(§9) The treated plants and control plants were placed in a greenhouse as described above and water was added as needed to maintain a paddy flood. […]

FIMMI = type: in vivo, Fimbristylis miliacea (L.) Vahl
Description: as §1, §2, §3, §4, §5, §6, §7, §8, §9

ECHCO = type: in vivo, Echinochloa colona (L.) Link
Description: as §1, §2
as §3, with “basis. […]” for “basis.”
as §5
For formulated compounds, a measured amount was placed in an individual 100 or 200 mL glass vial and was dissolved in a volume of 1.25% (v/v) Agri-Dex® crop oil concentrate to obtain application solutions. […]

SMILES: COc1c(Cl)ccc(-c2nc(C(=O)OCc3ccccc3)c(Cl)c(N)c2F)c1F [Compound A Benzyl Ester, benzyl ester of 4-amino-3-chloro-5-fluoro-6-(4-chloro-2-fluoro-3-methoxy-phenyl)pyridine-2-carboxylic acid]
- Visual Weed Control (%) - 21 DAA CYPRO Obs (CYPRO; 17.5 gae/ha): 10%
- Visual Weed Control (%) - 21 DAA FIMMI Obs (FIMMI; 8 gae/ha): 15%
- Visual Weed Control (%) - 21 DAA FIMMI Obs (FIMMI; 16 gae/ha): 65%

SMILES: COc1c(Cl)ccc(-c2nc(C(=O)O)c(Cl)c(N)c2F)c1F [Compound A Acid, 4-amino-3-chloro-6-(4-chloro-2-fluoro-3-methoxyphenyl)-5-fluoropyridine-2-carboxylic acid]
- Visual Weed Control (%) - 22 DAA CYPRO Obs (CYPRO; 10.6 gae/ha): 0%
- Visual Weed Control (%) - 22 DAA CYPRO Obs (CYPRO; 21.2 gae/ha): 40% and 60%
- Visual Weed Control (%) - 22 DAA CYPRO Obs (CYPRO; 42.4 gae/ha): 90%
- Visual Weed Control (%) - 21 DAA ECHCO Obs (ECHCO; 8.75 gae/ha): 0%
- Visual Weed Control (%) - 21 DAA ECHCO Obs (ECHCO; 17.5 gae/ha): 20%
- Visual Weed Control (%) - 21 DAA FIMMI Obs (FIMMI; 17.5 gae/ha): 85%
- Visual Weed Control (%) - 21 DAA FIMMI Obs (FIMMI; 35 gae/ha): 85%
